Data as given in the NIST ThermoML archive (doi:10.1021/je020140j).
± gives the expanded uncertainty stated by the source.

Assay: molar heat capacity at constant pressure; xn = mol fraction of the nth substance listed
Conditions: 101 kPa, Liquid, Small sample (50 mg) DSC

In the case of `OCCO` [1,2-ethanediol] + O, the “molar heat capacity at constant pressure” value (293.15 K, x1 = 0.0312) is reported as 88.03 ± 2.2 J/K/mol, the “molar heat capacity at constant pressure” value (293.15 K, x1 = 0.0676) is reported as 87.6 ± 2.1 J/K/mol and the “molar heat capacity at constant pressure” value (293.15 K, x1 = 0.1105) is reported as 86.7 ± 2.1 J/K/mol. The “molar heat capacity at constant pressure” value (293.15 K, x1 = 0.162) was 89.39 ± 2.2 J/K/mol, the “molar heat capacity at constant pressure” value (293.15 K, x1 = 0.2248) was 93.61 ± 2.3 J/K/mol and the “molar heat capacity at constant pressure” value (293.15 K, x1 = 0.3031) was 98.37 ± 2.4 J/K/mol. For the same compound, the “molar heat capacity at constant pressure” value (293.15 K, x1 = 0.4036) was 104.66 ± 2.6 J/K/mol, the “molar heat capacity at constant pressure” value (293.15 K, x1 = 0.537) was 114.3 ± 2.8 J/K/mol and the “molar heat capacity at constant pressure” value (293.15 K, x1 = 0.723) was 127.9 ± 3.1 J/K/mol. The “molar heat capacity at constant pressure” value (293.15 K, x1 = 1) was 147.47 ± 3.6 J/K/mol, the “molar heat capacity at constant pressure” value (303.15 K, x1 = 0.0312) was 87.89 ± 2.2 J/K/mol and the “molar heat capacity at constant pressure” value (303.15 K, x1 = 0.0676) was 87.81 ± 2.1 J/K/mol. For the same compound, the “molar heat capacity at constant pressure” value (303.15 K, x1 = 0.1105) was 87.05 ± 2.1 J/K/mol, the “molar heat capacity at constant pressure” value (303.15 K, x1 = 0.162) was 89.67 ± 2.2 J/K/mol and the “molar heat capacity at constant pressure” value (303.15 K, x1 = 0.2248) was 94.42 ± 2.3 J/K/mol. The “molar heat capacity at constant pressure” value (303.15 K, x1 = 0.3031) was 99.15 ± 2.4 J/K/mol, the “molar heat capacity at constant pressure” value (303.15 K, x1 = 0.4036) was 105.99 ± 2.6 J/K/mol and the “molar heat capacity at constant pressure” value (303.15 K, x1 = 0.537) was 115.72 ± 2.8 J/K/mol. The “molar heat capacity at constant pressure” value (303.15 K, x1 = 0.723) was 129.45 ± 3.2 J/K/mol, the “molar heat capacity at constant pressure” value (303.15 K, x1 = 1) was 149.71 ± 3.7 J/K/mol and the “molar heat capacity at constant pressure” value (313.15 K, x1 = 0.0312) was 88.36 ± 2.2 J/K/mol. The “molar heat capacity at constant pressure” value (313.15 K, x1 = 0.0676) was 88.19 ± 2.2 J/K/mol, the “molar heat capacity at constant pressure” value (313.15 K, x1 = 0.1105) was 87.48 ± 2.2 J/K/mol and the “molar heat capacity at constant pressure” value (313.15 K, x1 = 0.162) was 90.47 ± 2.2 J/K/mol. The “molar heat capacity at constant pressure” value (313.15 K, x1 = 0.2248) was 94.89 ± 2.3 J/K/mol, the “molar heat capacity at constant pressure” value (313.15 K, x1 = 0.3031) was 100.31 ± 2.4 J/K/mol and the “molar heat capacity at constant pressure” value (313.15 K, x1 = 0.4036) was 108.06 ± 2.6 J/K/mol. The “molar heat capacity at constant pressure” value (313.15 K, x1 = 0.537) was 117.68 ± 2.9 J/K/mol, the “molar heat capacity at constant pressure” value (313.15 K, x1 = 0.723) was 131.2 ± 3.2 J/K/mol and the “molar heat capacity at constant pressure” value (313.15 K, x1 = 1) was 152 ± 3.7 J/K/mol. For the same compound, the “molar heat capacity at constant pressure” value (323.15 K, x1 = 0.0312) was 88.63 ± 2.2 J/K/mol, the “molar heat capacity at constant pressure” value (323.15 K, x1 = 0.0676) was 88.59 ± 2.2 J/K/mol and the “molar heat capacity at constant pressure” value (323.15 K, x1 = 0.1105) was 87.53 ± 2.2 J/K/mol. For the same compound, the “molar heat capacity at constant pressure” value (323.15 K, x1 = 0.162) was 91 ± 2.2 J/K/mol, the “molar heat capacity at constant pressure” value (323.15 K, x1 = 0.2248) was 95.93 ± 2.3 J/K/mol and the “molar heat capacity at constant pressure” value (323.15 K, x1 = 0.3031) was 101.88 ± 2.5 J/K/mol. For the same compound, the “molar heat capacity at constant pressure” value (323.15 K, x1 = 0.4036) was 109.53 ± 2.7 J/K/mol, the “molar heat capacity at constant pressure” value (323.15 K, x1 = 0.537) was 119.76 ± 2.9 J/K/mol and the “molar heat capacity at constant pressure” value (323.15 K, x1 = 0.723) was 133.39 ± 3.3 J/K/mol. The “molar heat capacity at constant pressure” value (323.15 K, x1 = 1) was 153.8 ± 3.8 J/K/mol, the “molar heat capacity at constant pressure” value (333.15 K, x1 = 0.0312) was 88.8 ± 2.2 J/K/mol and the “molar heat capacity at constant pressure” value (333.15 K, x1 = 0.0676) was 88.99 ± 2.2 J/K/mol. For the same compound, the “molar heat capacity at constant pressure” value (333.15 K, x1 = 0.1105) was 87.76 ± 2.2 J/K/mol, the “molar heat capacity at constant pressure” value (333.15 K, x1 = 0.162) was 91.5 ± 2.2 J/K/mol and the “molar heat capacity at constant pressure” value (333.15 K, x1 = 0.2248) was 96.6 ± 2.4 J/K/mol. For the same compound, the “molar heat capacity at constant pressure” value (333.15 K, x1 = 0.3031) was 102.38 ± 2.5 J/K/mol, the “molar heat capacity at constant pressure” value (333.15 K, x1 = 0.4036) was 111 ± 2.7 J/K/mol and the “molar heat capacity at constant pressure” value (333.15 K, x1 = 0.537) was 121.18 ± 3 J/K/mol. The “molar heat capacity at constant pressure” value (333.15 K, x1 = 0.723) was 135.38 ± 3.3 J/K/mol, the “molar heat capacity at constant pressure” value (333.15 K, x1 = 1) was 156.22 ± 3.8 J/K/mol and the “molar heat capacity at constant pressure” value (343.15 K, x1 = 0.0312) was 88.88 ± 2.2 J/K/mol. For the same compound, the “molar heat capacity at constant pressure” value (343.15 K, x1 = 0.0676) was 89.1 ± 2.2 J/K/mol, the “molar heat capacity at constant pressure” value (343.15 K, x1 = 0.1105) was 88.31 ± 2.2 J/K/mol and the “molar heat capacity at constant pressure” value (343.15 K, x1 = 0.162) was 92.56 ± 2.3 J/K/mol. The “molar heat capacity at constant pressure” value (343.15 K, x1 = 0.2248) was 97.46 ± 2.4 J/K/mol, the “molar heat capacity at constant pressure” value (343.15 K, x1 = 0.3031) was 103.64 ± 2.5 J/K/mol and the “molar heat capacity at constant pressure” value (343.15 K, x1 = 0.4036) was 111.93 ± 2.8 J/K/mol. For the same compound, the “molar heat capacity at constant pressure” value (343.15 K, x1 = 0.537) was 122.85 ± 3 J/K/mol, the “molar heat capacity at constant pressure” value (343.15 K, x1 = 0.723) was 138.08 ± 3.4 J/K/mol and the “molar heat capacity at constant pressure” value (343.15 K, x1 = 1) was 159.7 ± 3.9 J/K/mol. The “molar heat capacity at constant pressure” value (353.15 K, x1 = 0.0312) was 89.15 ± 2.2 J/K/mol, the “molar heat capacity at constant pressure” value (353.15 K, x1 = 0.0676) was 89.47 ± 2.2 J/K/mol and the “molar heat capacity at constant pressure” value (353.15 K, x1 = 0.1105) was 88.97 ± 2.2 J/K/mol. For the same compound, the “molar heat capacity at constant pressure” value (353.15 K, x1 = 0.162) was 92.31 ± 2.3 J/K/mol, the “molar heat capacity at constant pressure” value (353.15 K, x1 = 0.2248) was 98.61 ± 2.4 J/K/mol and the “molar heat capacity at constant pressure” value (353.15 K, x1 = 0.3031) was 104.99 ± 2.6 J/K/mol. The “molar heat capacity at constant pressure” value (353.15 K, x1 = 0.4036) was 113.83 ± 2.8 J/K/mol, the “molar heat capacity at constant pressure” value (353.15 K, x1 = 0.537) was 124.97 ± 3 J/K/mol and the “molar heat capacity at constant pressure” value (353.15 K, x1 = 0.723) was 140.57 ± 3.4 J/K/mol. For the same compound, the “molar heat capacity at constant pressure” value (353.15 K, x1 = 1) was 161 ± 4 J/K/mol, the “molar heat capacity at constant pressure” value (363.15 K, x1 = 0.0312) was 89.25 ± 2.2 J/K/mol and the “molar heat capacity at constant pressure” value (363.15 K, x1 = 0.0676) was 89.6 ± 2.2 J/K/mol. For the same compound, the “molar heat capacity at constant pressure” value (363.15 K, x1 = 0.1105) was 89.27 ± 2.2 J/K/mol, the “molar heat capacity at constant pressure” value (363.15 K, x1 = 0.162) was 93.51 ± 2.3 J/K/mol and the “molar heat capacity at constant pressure” value (363.15 K, x1 = 0.2248) was 99.61 ± 2.4 J/K/mol. The “molar heat capacity at constant pressure” value (363.15 K, x1 = 0.3031) was 106.52 ± 2.6 J/K/mol, the “molar heat capacity at constant pressure” value (363.15 K, x1 = 0.4036) was 115.04 ± 2.8 J/K/mol and the “molar heat capacity at constant pressure” value (363.15 K, x1 = 0.537) was 126.81 ± 3.1 J/K/mol. For the same compound, the “molar heat capacity at constant pressure” value (363.15 K, x1 = 0.723) was 142.17 ± 3.5 J/K/mol, the “molar heat capacity at constant pressure” value (363.15 K, x1 = 1) was 164.98 ± 4 J/K/mol and the “molar heat capacity at constant pressure” value (373.15 K, x1 = 0.1105) was 89.52 ± 2.2 J/K/mol. The “molar heat capacity at constant pressure” value (373.15 K, x1 = 0.162) was 93.89 ± 2.3 J/K/mol, the “molar heat capacity at constant pressure” value (373.15 K, x1 = 0.2248) was 100.23 ± 2.5 J/K/mol and the “molar heat capacity at constant pressure” value (373.15 K, x1 = 0.3031) was 107.47 ± 2.6 J/K/mol. For the same compound, the “molar heat capacity at constant pressure” value (373.15 K, x1 = 0.4036) was 116.01 ± 2.8 J/K/mol, the “molar heat capacity at constant pressure” value (373.15 K, x1 = 0.537) was 128.22 ± 3.1 J/K/mol and the “molar heat capacity at constant pressure” value (373.15 K, x1 = 0.723) was 144.36 ± 3.5 J/K/mol. The “molar heat capacity at constant pressure” value (373.15 K, x1 = 1) was 168.45 ± 4.1 J/K/mol.
